Active and inactive are the calls of the source. The calls are words filed in the database; no cut-off is given here.
Experiments:
MCF7 = experiment: Cytotoxicity against human MCF7 cells after 72 hrs by MTT assay; assay type: functional, cell-based; conditions: MCF7, 72 h
SW-620 = experiment: Cytotoxicity against human SW620 cells after 72 hrs by MTT assay; assay type: functional, cell-based; conditions: SW-620, 72 h
MIA PaCa-2 = experiment: Cytotoxicity against human MIAPaCa2 cells after 72 hrs by MTT assay; assay type: functional, cell-based; conditions: MIA PaCa-2, 72 h
HeLa = experiment: Cytotoxicity against human HeLa cells after 72 hrs by MTT assay; assay type: functional, cell-based
HEp-2 = experiment: Cytotoxicity against human Hep2 cells after 72 hrs by MTT assay; assay type: functional, cell-based; conditions: HEp-2, 72 h
Nucleic Acid [1] = experiment: Binding affinity to Poly G-Poly C RNA at 0.7 compound to polynucleotide ratio by circular dichroism spectroscopy; assay type: nucleic-acid assay
Nucleic Acid [2] = experiment: Binding affinity to Poly G-Poly C RNA at 0.5 compound to polynucleotide ratio by circular dichroism spectroscopy; assay type: nucleic-acid assay
Nucleic Acid [3] = experiment: Binding affinity to Poly G-Poly C RNA at 0.2-0.3 compound to polynucleotide ratio by circular dichroism spectroscopy; assay type: nucleic-acid assay
Nucleic Acid [4] = experiment: Binding affinity to Poly G-Poly C RNA at 0.1 compound to polynucleotide ratio by circular dichroism spectroscopy; assay type: nucleic-acid assay
Nucleic Acid [5] = experiment: Binding affinity to Poly G-Poly C RNA at < 0.3 compound to polynucleotide ratio by circular dichroism spectroscopy; assay type: nucleic-acid assay
Nucleic Acid [6] = experiment: Binding affinity to Poly A-Poly U RNA measured at 326 nm wavelength at 0.7 compound to polynucleotide ratio by circular dichroism spectroscopy; assay type: nucleic-acid assay
Nucleic Acid [7] = experiment: Binding affinity to Poly A-Poly U RNA at 0.5 compound to polynucleotide ratio by circular dichroism spectroscopy; assay type: nucleic-acid assay
Nucleic Acid [8] = experiment: Binding affinity to Poly A-Poly U RNA measured at 290 nm wavelength at 0.1 compound to polynucleotide ratio by circular dichroism spectroscopy; assay type: nucleic-acid assay
Nucleic Acid [9] = experiment: Binding affinity to Poly A-Poly U RNA measured at 300 to 330 nm wavelength at < 0.3 compound to polynucleotide ratio by circular dichroism spectroscopy; assay type: nucleic-acid assay
Nucleic Acid [10] = experiment: Binding affinity to double strand Poly dA-Poly dT DNA measured at 300 to 330 nm wavelength at > 0.5 compound to polynucleotide ratio by circular dichroism spectroscopy; assay type: nucleic-acid assay
Nucleic Acid [11] = experiment: Binding affinity to double strand calf thymus DNA measured at 300 to 330 nm wavelength at > 0.5 compound to polynucleotide ratio by circular dichroism spectroscopy; assay type: nucleic-acid assay; conditions: Bos taurus
Nucleic Acid [12] = experiment: Binding affinity to double strand Poly dA-Poly dT DNA measured at 300 to 330 nm wavelength at 0.3 compound to polynucleotide ratio by circular dichroism spectroscopy; assay type: nucleic-acid assay
Nucleic Acid [13] = experiment: Binding affinity to double strand calf thymus DNA measured at 300 to 330 nm wavelength at 0.3 compound to polynucleotide ratio by circular dichroism spectroscopy; assay type: nucleic-acid assay; conditions: Bos taurus
Nucleic Acid [14] = experiment: Binding affinity to double strand Poly dA-Poly dT DNA measured at 300 to 330 nm wavelength at 0.1 compound to polynucleotide ratio by circular dichroism spectroscopy; assay type: nucleic-acid assay
Nucleic Acid [15] = experiment: Binding affinity to double strand calf thymus DNA measured at 300 to 330 nm wavelength at 0.1 compound to polynucleotide ratio by circular dichroism spectroscopy; assay type: nucleic-acid assay; conditions: Bos taurus
Nucleic Acid [16] = experiment: Binding affinity to Poly dA-Poly dT DNA assessed as ratio of ethidium bromide /compound at which 50% of ethidium bromide fluorescence is quenched by displacement assay; assay type: nucleic-acid assay
Nucleic Acid [17] = experiment: Binding affinity to Poly G-Poly C RNA assessed as ratio of ethidium bromide /compound at which 50% of ethidium bromide fluorescence is quenched by displacement assay; assay type: nucleic-acid assay
Nucleic Acid [18] = experiment: Binding affinity to Poly A-Poly U RNA assessed as ratio of ethidium bromide /compound at which 50% of ethidium bromide fluorescence is quenched by displacement assay; assay type: nucleic-acid assay
Nucleic Acid [19] = experiment: Binding affinity to calf thymus DNA assessed as ratio of ethidium bromide /compound at which 50% of ethidium bromide fluorescence is quenched by displacement assay; assay type: nucleic-acid assay, Bos taurus
Nucleic Acid [20] = experiment: Binding affinity to calf thymus DNA by UV-VIS spectral study; assay type: nucleic-acid assay; conditions: Bos taurus
Nucleic Acid [21] = experiment: Binding affinity to Poly dA-Poly dT DNA assessed as change in melting temperature at 0.5 compound to polynucleotide ratio by UV-VIS spectral study; assay type: nucleic-acid assay
Nucleic Acid [22] = experiment: Binding affinity to Poly dA-Poly dT DNA assessed as change in melting temperature at 0.3 compound to polynucleotide ratio by UV-VIS spectral study; assay type: nucleic-acid assay
Nucleic Acid [23] = experiment: Binding affinity to Poly A-Poly U RNA assessed as change in melting temperature at 0.5 compound to polynucleotide ratio by UV-VIS spectral study; assay type: nucleic-acid assay
Nucleic Acid [24] = experiment: Binding affinity to Poly A-Poly U RNA assessed as change in melting temperature at 0.3 compound to polynucleotide ratio by UV-VIS spectral study; assay type: nucleic-acid assay
Nucleic Acid [25] = experiment: Binding affinity to calf thymus DNA assessed as change in melting temperature at 0.5 compound to polynucleotide ratio by UV-VIS spectral study; assay type: nucleic-acid assay; conditions: Bos taurus
Nucleic Acid [26] = experiment: Binding affinity to calf thymus DNA assessed as change in melting temperature at 0.3 ratio compound/polynucleotide by UV-VIS spectral study; assay type: nucleic-acid assay; conditions: Bos taurus
NCI-H460 = experiment: Cytotoxicity against human H460 cells after 72 hrs by MTT assay; assay type: functional, cell-based; conditions: NCI-H460, 72 h
HCT-116 = experiment: Cytotoxicity against human HCT116 cells after 72 hrs by MTT assay; assay type: functional, cell-based; conditions: HCT-116, 72 h
MOLT-4 = experiment: Cytotoxicity against human MOLT4 cells after 72 hrs by MTT assay; assay type: functional, cell-based; conditions: MOLT-4, 72 h
Nucleic Acid [27] = experiment: Binding affinity to Poly A-Poly U RNA measured at 299 nm wavelength at < 0.3 compound to polynucleotide ratio by circular dichroism spectroscopy; assay type: nucleic-acid assay
Nucleic Acid [28] = experiment: Stabilization of double helix calf thymus DNA by spectroscopy; assay type: nucleic-acid assay; conditions: Bos taurus
Nucleic Acid [29] = experiment: Binding affinity to Poly A-Poly U RNA measured at 303 nm wavelength at < 0.3 compound to polynucleotide ratio by circular dichroism spectroscopy; assay type: nucleic-acid assay

Row | Activity (Nucleic Acid [9]) | IC50 (Nucleic Acid [16]) | IC50 (Nucleic Acid [17]) | IC50 (Nucleic Acid [18]) | IC50 (Nucleic Acid [19]) | ΔTm (Nucleic Acid [21]) | ΔTm (Nucleic Acid [22]) | ΔTm (Nucleic Acid [23]) | ΔTm (Nucleic Acid [24]) | ΔTm (Nucleic Acid [25]) | ΔTm (Nucleic Acid [26]) | SMILES | IC50 (MCF7) | IC50 (SW-620) | IC50 (MIA PaCa-2) | IC50 (HeLa) | IC50 (HEp-2) | IC50 (NCI-H460) | IC50 (HCT-116) | IC50 (MOLT-4) | other results
1 | Active | 2.23 molar ratio | 0.2 molar ratio | 0.03 molar ratio | 0.36 molar ratio | 31.7 °C | 29.5 °C | 20.1 °C | 4.5 °C | 6.6 °C | 5.6 °C | CC(C)NC(=N)c1ccc(NC(=O)c2ccc(C(=O)Nc3ccc(C(=N)NC(C)C)cc3)o2)cc1.Cl.Cl | 4 µM | 4 µM | 79 µM | 50 µM | 5 µM |  |  |  | Activity (Nucleic Acid [1]): Active; Activity (Nucleic Acid [2]): Active; Activity (Nucleic Acid [3]): Active; Activity (Nucleic Acid [4]): Active; Activity (Nucleic Acid [5]): Active; Activity (Nucleic Acid [6]): Active; Activity (Nucleic Acid [7]): Active; Activity (Nucleic Acid [8]): Active; Activity (Nucleic Acid [10]): Active; Activity (Nucleic Acid [11]): Active; Activity (Nucleic Acid [12]): inactive; Activity (Nucleic Acid [13]): inactive; Activity (Nucleic Acid [14]): Active; Activity (Nucleic Acid [15]): Active; Ks (Nucleic Acid [20]): 6.3 ×10⁴ /M
2 | Active | 1.7 molar ratio | 0.07 molar ratio | 0.5 molar ratio | 0.19 molar ratio | 30.9 °C | 29.3 °C | 18.7 °C | 1 °C | 15 °C | 13.5 °C | Cl.Cl.N=C(N)c1ccc(C(=O)Nc2cccc(NC(=O)c3ccc(C(=N)N)cc3)n2)cc1 | 12 µM | > 100 µM | 13 µM | 19 µM | 21 µM | 17 µM | 67 µM | > 100 µM | Activity (Nucleic Acid [27]): inactive
3 |  |  |  |  |  |  |  |  |  |  |  | N#Cc1ccc(NC(=O)c2ccc(C(=O)Nc3ccc(C#N)cc3)o2)cc1 | > 100 µM | > 100 µM | > 100 µM | > 100 µM | > 100 µM |  |  |  | 
4 |  |  |  |  |  |  |  |  |  |  |  | CC(C)NC(=N)c1ccc(NC(=O)c2ccco2)cc1 | > 100 µM | > 100 µM | > 100 µM | 60 µM | > 100 µM |  |  |  | Activity (Nucleic Acid [28]): inactive
5 | Active | 2 molar ratio | 0.07 molar ratio | 0.07 molar ratio | 0.13 molar ratio | 32.2 °C | 30.5 °C | 5.7 °C | 3.7 °C | 14.5 °C | 13.1 °C | CC(C)NC(=N)c1ccc(C(=O)Nc2cccc(NC(=O)c3ccc(C(=N)NC(C)C)cc3)n2)cc1.Cl.Cl | 24 µM | > 100 µM | > 100 µM | 56 µM | 38 µM | > 100 µM | > 100 µM | > 100 µM | Activity (Nucleic Acid [27]): Active
6 | Active | 1.6 molar ratio | 0.25 molar ratio | 0.47 molar ratio | 0.3 molar ratio |  | 20.4 °C |  | 1 °C |  | 6.7 °C | Cl.Cl.N=C(N)c1ccc(NC(=O)c2cccc(C(=O)Nc3ccc(C(=N)N)cc3)n2)cc1 | > 100 µM | > 100 µM | 13 µM | 18 µM | 47 µM | 19 µM | > 100 µM | > 100 µM | Activity (Nucleic Acid [29]): Active
7 |  |  |  |  |  |  |  |  |  |  |  | N#Cc1ccc(NC(=O)c2ccco2)cc1 | 32 µM | > 100 µM | > 100 µM | 47 µM | > 100 µM |  |  |  | 
8 |  | 2.1 molar ratio | 0.36 molar ratio | 1 molar ratio | 0.8 molar ratio |  | 30.2 °C |  | 1.6 °C |  | 7.5 °C | Cl.Cl.N=C(N)c1ccc(NC(=O)c2ccc(C(=O)Nc3ccc(C(=N)N)cc3)o2)cc1 | 5 µM | > 100 µM | 53 µM | > 100 µM | 11 µM |  |  |  | 
9 | Active | 1.37 molar ratio | 0.1 molar ratio | 0.17 molar ratio | 0.15 molar ratio | 25.5 °C | 24.1 °C | 3.7 °C | 3.1 °C | 10.3 °C | 8.5 °C | CC(C)NC(=N)c1ccc(NC(=O)c2cccc(C(=O)Nc3ccc(C(=N)NC(C)C)cc3)n2)cc1.Cl.Cl | 32 µM | > 100 µM | > 100 µM | 53 µM | 30 µM | > 100 µM | > 100 µM | > 100 µM | 
10 |  |  |  |  |  |  |  |  |  |  |  | N=C(N)c1ccc(NC(=O)c2ccco2)cc1 | 33 µM | > 100 µM | > 100 µM | > 100 µM | > 100 µM |  |  |  | Activity (Nucleic Acid [28]): inactive
